According to PMC7576778, “The tomato receptor CuRe1 senses a cell wall protein to identify Cuscuta as a pathogen” (Nature Communications, 2020):
Values joined by “and” are separate entries in the source; they are usually repeats but may differ in a detail not shown here. Identical values can stand only once.

Columns and labels:
CuRe1 [1] = test: Ethylene bioassay, leaf pieces of transgenic CuRe1-expressing N. benthamiana; assay type: cell-based, S. lycopersicum (tomato), expressed in N. benthamiana; set-up: ethylene measurement, average: unit not given here; details: for concentration at which ethylene production is triggered (minimum effective concentration) / activity in CuRe1-dependent ethylene induction (in words): CuRe1-expressing N. benthamiana leaves; for concentration at which ethylene production is triggered (minimum effective concentration): dose-dependent ethylene bioassay; for Ethylene, MW: RepFig 3a_2, H2O
Description: (§1) All obtained extracts or collected fractions after each purification step, as well as the isolated CrGRP or synthesized Crip peptides were tested for bioactivity in the ethylene assay as previously described. For this we cut leaf samples of analyzed plants in 3 × 3 mm squares and float them on a water surface. After incubation over night at RT, three leaf pieces are carefully collected into glass tubes (6 ml) with 500 µl water. Samples were treated as indicated as well as amounts of used extracts or concentrations of peptides. After treatment tubes were sealed with a rubber plug and incubated at RT on a horizontal shaker (85–100 rpm) for 3 h. All samples were analyzed with a Gaschromatograph (Shimadzu, GC-2014, glass column 3 mm × 1.6 m with Al2O3) by manually injecting 1 ml of the gaseous phase.

N. benthamiana wt = test: Ethylene bioassay, leaf pieces of wildtype N. benthamiana; assay type: cell-based
Description: as §1

CuRe1 [2] = test: Affinity-crosslinking of bio-Crip29 with CuRe1 in planta; assay type: binding, S. lycopersicum (tomato), expressed in N. benthamiana
Description: In vivo cross-linking of biotin-Crip29 (Crip29 aa-sequence: […]) to CuRe1 was performed as described; leaves of N. benthamiana expressing 35S::CuRe1:myc, or control plants (N. benthamiana expressing 35S::RLP23:myc) were infiltrated with biotinylated bio-Crip29 (10 nM in ddH2O) with or without unlabeled Crip21 (or unlabeled Crip82-106) (10 μM) as competitor or with flg22 peptide as competition control. Five minutes after peptide treatment 2 mM EGS (ethylene glycol bis(succinimidyl succinate) in 25 mM HEPES buffer (pH 7.5) was infiltrated into the same leaves for cross-linking of peptides to the receptor proteins. Twenty minutes after cross-linking, leaf samples were harvested and frozen in liquid nitrogen; immunoprecipitations were performed against the myc tag present at the c-terminus of CuRe1 using myc-trap agarose beads (ChromoTek, IZB Martinsried, Germany) as described above. All peptides, including biotinylated bio-Crip29, were synthesized by GenScript® and ordered with a purity of >95%. Biotinylated Crip29 was detected on blots by Streptavidine-conjugated Alkaline Phosphatase (Strep-AP, Roche diagnostics; Streptavidin-AP conjugate, Cat. No.: 11089161001, dilution: 1:1000 in 5% Albumin Fraction V, biotin-free).

S. lycopersicum = test: Ethylene bioassay, leaf pieces of cultivated tomato; assay type: cell-based; details: Suppl.Fig6c, peptides applied at 5 µM each, mean of the samples
Description: as §1

[3] = MS analysis of Crip21 treated with NH4OH or ethylamine; assay type: physicochemical; details: 12.5% NH4OH or 70% ethylamine
Description: The Cuscuta factor (CuF) could be inactivated by incubating it either with 12.5% NH4OH or 70% ethylamine for 1 h at 45 °C.
49 Supplementary Fig. 5. Inactivation of Crip21 by treatments with NH4OH or Ethylamine; (a) Crip21
51 biosynthesis in CuRe1-expressing N. benthamiana leaves. Peptide samples were applied at
52 concentrations of 100 nM. Bovine serum albumin (BSA; 0.01 mg/ml) buffered in 25 mM MES (pH
53 5.7) was added as mock control. FW, fresh weight; ethylene measurements show means of three
54 technical replicates; error bars denote SD. (b) incubation with NH4OH or Ethylamine leads to
56 products with different masses.
(1 picture or pasted object on this page, not shown here)

[4] = test system: leaves of S. lycopersicum, IL 12-2, IL 8-1-1 and S. pennellii; test: Hypersensitive response (HR) cell death after peptide infiltration into tomato leaves; assay type: in vivo; details: 7 days
Description: For monitoring hypersensitive responses (HR) in leaves, 35S::CrGRP:GFP or 35S::GFP constructs were expressed in either transgenic, CuRe1-expressing or wt N. benthamiana plants. Leaves were infiltrated as described above using the defined volume of 200 µl; infiltration area was carefully labeled with a black marker. Pictures were taken 7 days post infiltration. For detecting HR-symptoms in tomato plants, two leaves of three plants (six leaves total; per introgression line or wildtype) were infiltrated with 100 µl of a 100 nM peptide solution; infiltrated leaf area was labeled with a pen immediately after infiltration and photographs were taken 7 days post peptide infiltration.

[5] = target: Cuscuta Receptor 1 (CuRe1), myc-tagged (tomato (Solanum lycopersicum))
[6] = Fig3a + Supl4, N. benthamiana CuRe1, peptide 1 nM, mean of 3 technical replicates
[7] = Fig3a + Supl4, N. benthamiana CuRe1, peptide 10 nM, mean of 3 technical replicates
[8] = Fig3a + Supl4, N. benthamiana CuRe1, peptide 100 nM, mean of 3 technical replicates
[9] = RepFig3b_2, 0.01 nM, mean of 3 samples
[10] = RepFig3b_2, 0.1 nM, mean of 3 samples
[11] = RepFig3b_2, 1 nM, mean of 3 samples
[12] = RepFig3b_2, 10 nM, mean of 3 samples
[13] = RepFig3b_2, 100 nM, mean of 3 samples

GKNCGNSGCCGGAYSNGQCKRCCAY [CrGRP82-106, synthetic peptide representing CrGRP residues 82-106]
concentration at which ethylene production is triggered (minimum effective concentration) (CuRe1 [1]): ≥ 0.1 nM | ethylene, average (CuRe1 [1]; [6]): 5.823 | ethylene, average (CuRe1 [1]; [7]): 8.73 | ethylene, average (CuRe1 [1]; [8]): 9.817 | Ethylene, MW (CuRe1 [1]; 1 nM, 3 h RT, mean of 3 samples): 1.5 pmol/ml air | Ethylene, MW (CuRe1 [1]; 10 nM, 3 h RT, mean of 3 samples): 4.6 pmol/ml air | Ethylene, MW (CuRe1 [1]; 100 nM, 3 h RT, mean of 3 samples): 8.9 pmol/ml air | ethylene, average (CuRe1 [1]; [9]): 0.29 | ethylene, average (CuRe1 [1]; [10]): 1.63 | ethylene, average (CuRe1 [1]; [11]): 3.067 | ethylene, average (CuRe1 [1]; [12]): 8.457 | ethylene, average (CuRe1 [1]; [13]): 11.2833 | ethylene, average (N. benthamiana wt; Fig3a + Supl4, peptide 100 nM, mean of 3): 0.2267

GKGKNCGNSGCCGGAYSNGQCKRCCAYKG [bio-Crip29]
biotin labelling of CuRe1 immunoprecipitates (CuRe1 [2]; bio-Crip29 10 nM infiltrated, crosslinked with 2 mM EGS, myc-trap IP, Strep-AP blot): clear labelling | activity in CuRe1-dependent ethylene induction (in words) (CuRe1 [1]): as active as Crip21 | ethylene, average (CuRe1 [1]; [9]): 0.2933 | ethylene, average (CuRe1 [1]; [10]): 0.34 | ethylene, average (CuRe1 [1]; [11]): 1.017 | ethylene, average (CuRe1 [1]; [12]): 5.31 | ethylene, average (CuRe1 [1]; [13]): 7.693

Crip21: 21 aa cysteine-rich peptide, minimal epitope of C. reflexa glycine-rich protein CrGRP, synthesized (NCGNSGCCGGAYSNGQCKRCC)
ethylene-inducing bioactivity after treatment with NH4OH (CuRe1 [1]; 12.5% NH4OH, 1 h at 45 °C, read-out ethylene in CuRe1 N. benthamiana, peptide 100 nM): lost all of its activity | ethylene-inducing bioactivity after treatment with ethylamine (CuRe1 [1]; 70% ethylamine, 1 h at 45 °C, read-out ethylene in CuRe1 N. benthamiana, peptide 100 nM): loose activity | activity in CuRe1-dependent ethylene induction (in words) (CuRe1 [1]): full activity | concentration at which ethylene production is triggered (minimum effective concentration) (CuRe1 [1]): > 0.1 nM | ethylene, average (CuRe1 [1]; Fig3a + Supl4, N. benthamiana CuRe1, amount printed as 1 µl, mean of 3 technical replicates): 10 | ethylene, average (CuRe1 [1]; [9]): 0.2767 | ethylene, average (CuRe1 [1]; [10]): 1.39 | ethylene, average (CuRe1 [1]; [11]): 4.143 | ethylene, average (CuRe1 [1]; [12]): 8.283 | ethylene, average (CuRe1 [1]; [13]): 9.4 | ethylene, average (CuRe1 [1]; Suppl.Fig5, N. benthamiana CuRe1, peptide samples 100 nM, untreated or treated with 12.5% NH4OH / 70% ethylamine, mean of 9 samples, values <0.2 not collected): 3.844 | ethylene, average (CuRe1 [1]; Suppl.Fig6b, N. benthamiana CuRe1, 0.01 nM, mean of 3): 0.375 pmol/ml air | ethylene, average (CuRe1 [1]; Suppl.Fig6b, N. benthamiana CuRe1, 0.1 nM, mean of 3): 0.45 pmol/ml air | ethylene, average (CuRe1 [1]; Suppl.Fig6b, N. benthamiana CuRe1, 1 nM, mean of 3): 1.1 pmol/ml air | ethylene, average (CuRe1 [1]; Suppl.Fig6b, N. benthamiana CuRe1, 10 nM, mean of 3): 2.8 pmol/ml air | ethylene, average (CuRe1 [1]; Suppl.Fig6b, N. benthamiana CuRe1, 100 nM, mean of 3): 11.3 pmol/ml air | ethylene, average (CuRe1 [1]; Suppl.Fig6b, N. benthamiana CuRe1, 1000 nM, 3 leaf pieces + 0.5 ml H2O / 6 ml tube, 3 h RT, mean of 3): 11.6 pmol/ml air | ethylene measurement, average (CuRe1 [1]; Suppl.Fig6c, N. benthamiana Cure1, peptides applied at 5 µM each, mean of the samples): 9.564 | ethylene measurement, average (S. lycopersicum): 20.1539 | peptide mass signal after incubation with NH4OH or ethylamine [3]: disappearance of the peptide mass signal | HR-type cell death, plants lacking CuRe1 ([4]; leaves of S. pennellii and IL8-1-1 infiltrated with 100 nM peptide): did not | HR-type cell death, plants with functional CuRe1 ([4]; leaves of cultivated tomato (S. lycopersicum) or IL 12-2 infiltrated with 100 nM peptide): showed Crip21-dependent cell death | ethylene, average (N. benthamiana wt; Fig3a + Supl4, amount printed as 1 µl, mean of 3): 0.2667 | ethylene, average (N. benthamiana wt; Suppl.Fig5, peptide samples 100 nM, mean of 3, values <0.2 not collected): 0.2 | ethylene measurement, average (N. benthamiana wt; Suppl.Fig6c, peptides applied at 5 µM each, mean of the samples): 0.1967

non-modified Crip: unlabeled Crip21 or Crip82-106 (10 µM) used as competitor in crosslinking (NCGNSGCCGGAYSNGQCKRCC)
competition of bio-Crip29 labelling of CuRe1 (CuRe1 [2]; bio-Crip29 10 nM with excess competitor (10 µM)): absent

CrGRP82-106 synthetic peptide
ethylene production in CuRe1-expressing N. benthamiana, dose series of peptide [5]: > 0.1 nM

GGGGSGHGGHGKGKN [GRP15, 15 aa peptide that served as fingerprint for identification of CrGRP]
activity in CuRe1-dependent ethylene induction (in words) (CuRe1 [1]): completely inactive | ethylene, average (CuRe1 [1]; [6]): 0,2 and 0.2127 | ethylene, average (CuRe1 [1]; [7]): 0,3 and 0.2733 | ethylene, average (CuRe1 [1]; [8]): 0,6 and 0.5933 | ethylene, average (CuRe1 [1]; Fig3a + Supl4, N. benthamiana CuRe1, peptide 1000 nM, mean of 3 technical replicates): 0,4 and 0.3733 | activity at 100 µM (CuRe1 [1]; authors' reply in peer review file, refers to Supplementary Fig. 4): no activity
